Molecules are shown by their SMILES.

For this assay, the target named is EGFR (human) (UniProt P00533).
Chain of EGFR (human) (P00533 whole entry, looked up): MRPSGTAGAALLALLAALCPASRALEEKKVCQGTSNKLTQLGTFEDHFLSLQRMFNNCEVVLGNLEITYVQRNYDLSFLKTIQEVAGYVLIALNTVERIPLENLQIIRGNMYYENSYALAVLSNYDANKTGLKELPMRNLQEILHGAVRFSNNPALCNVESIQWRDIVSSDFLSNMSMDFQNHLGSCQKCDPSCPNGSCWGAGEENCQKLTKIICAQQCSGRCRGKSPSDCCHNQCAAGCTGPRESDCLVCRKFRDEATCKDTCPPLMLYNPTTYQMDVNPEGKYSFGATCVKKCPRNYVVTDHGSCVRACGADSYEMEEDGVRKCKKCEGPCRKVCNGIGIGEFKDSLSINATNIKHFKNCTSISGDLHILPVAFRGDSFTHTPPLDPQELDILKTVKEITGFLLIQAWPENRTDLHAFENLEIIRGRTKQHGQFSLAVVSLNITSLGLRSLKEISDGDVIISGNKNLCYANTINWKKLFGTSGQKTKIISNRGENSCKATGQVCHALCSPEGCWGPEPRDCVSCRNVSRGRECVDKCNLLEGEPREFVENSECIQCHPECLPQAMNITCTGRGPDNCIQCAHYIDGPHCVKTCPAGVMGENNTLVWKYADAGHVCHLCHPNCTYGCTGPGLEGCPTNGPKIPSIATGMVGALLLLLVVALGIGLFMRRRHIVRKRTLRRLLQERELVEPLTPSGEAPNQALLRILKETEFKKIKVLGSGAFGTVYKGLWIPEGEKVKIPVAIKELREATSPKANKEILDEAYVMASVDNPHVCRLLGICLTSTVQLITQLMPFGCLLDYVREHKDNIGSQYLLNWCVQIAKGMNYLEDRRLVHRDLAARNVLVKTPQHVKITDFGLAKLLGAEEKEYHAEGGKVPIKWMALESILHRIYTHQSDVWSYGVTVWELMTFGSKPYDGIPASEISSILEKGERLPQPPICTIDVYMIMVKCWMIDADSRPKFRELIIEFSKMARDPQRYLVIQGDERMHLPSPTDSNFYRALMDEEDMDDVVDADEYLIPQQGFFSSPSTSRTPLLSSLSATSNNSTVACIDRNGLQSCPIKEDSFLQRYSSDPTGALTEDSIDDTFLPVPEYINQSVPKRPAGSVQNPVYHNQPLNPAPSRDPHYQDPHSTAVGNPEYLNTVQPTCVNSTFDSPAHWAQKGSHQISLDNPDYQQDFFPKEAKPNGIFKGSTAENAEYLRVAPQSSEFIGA
Take `O=C(Cc1cccs1)Nc1cccc(-c2ncsc2-c2ccnc(Nc3ccc4c(c3)NC(=O)CO4)n2)c1`: the IC50 was < 100 nM. With `CN(C)CCOc1ccc(Nc2nccc(-c3sc(-c4ccc(O)cc4)nc3-c3cccc(NC(=O)c4cc(F)ccc4F)c3)n2)cc1Cl`, the IC50 is < 100 nM. On to `O=C(Nc1cccc(-c2nc(NCCCN3CCOCC3)sc2-c2ccnc(Nc3cccc(F)c3)n2)c1)c1c(F)cccc1F`, for which the IC50 was < 100 nM. On to `O=C1COc2ccc(Nc3nccc(-c4scnc4-c4cccc(NC(=O)c5cc(F)ccc5F)c4)n3)cc2N1`, for which the IC50 was < 100 nM.

On to `CN(C)CCOc1ccc(Nc2nccc(-c3sc(N4CCN(C)CC4)nc3-c3cccc(NC(=O)c4c(F)cccc4F)c3)n2)cc1Cl`, for which the IC50 is < 100 nM. For the compound `CCc1nc(-c2cccc(NC(=O)c3c(F)cccc3F)c2)c(-c2ccnc(Nc3ccc(N4CCC(N5CCCCC5)CC4)c(F)c3)n2)s1`, the IC50 was < 100 nM.

Regarding `Cc1nc(-c2cccc(NC(=O)c3cccc(C(F)(F)F)c3)c2)c(-c2ccnc(Nc3ccc4c(c3)CN(C)CC4)n2)s1`, the IC50 is < 100 nM. In the case of `CC(=O)Nc1nc(-c2cccc(NC(=O)c3c(F)cccc3F)c2)c(-c2ccnc(Nc3cccc(CN4CCCC4)c3)n2)s1`, the IC50 is < 100 nM. As to `Nc1nc(-c2cccc(NC(=O)c3cc(F)ccc3F)c2)c(-c2ccnc(Nc3ccc4c(c3)CNCC4)n2)s1`, the IC50 is < 100 nM.

Consider `CN(C)C1Cc2ccc(Nc3nccc(-c4sc(N)nc4-c4cccc(NC(=O)c5c(F)cccc5F)c4)n3)cc2C1` (centres undefined), for which the IC50 is < 100 nM. The value for `CC(C)c1nc(-c2cccc(NC(=O)c3c(F)cccc3F)c2)c(-c2ccnc(Nc3ccc(OCCN4CCCC4)c(Cl)c3)n2)s1` was < 100 nM; that for `Nc1nc(-c2cccc(C(=O)Nc3c(F)cccc3F)c2)c(-c2ccnc(Nc3cccc(CN4CCCC4)c3)n2)s1` was < 100 nM. The result for `Cc1cc(Nc2nccc(-c3sc(N(C)C)nc3-c3cccc(NC(=O)c4c(F)cccc4F)c3)n2)ccc1CC1CCNCC1` reads < 100 nM.

As for `NS(=O)(=O)CCc1cccc(Nc2nccc(-c3scnc3-c3cccc(NC(=O)c4cc(F)ccc4F)c3)n2)c1`, the IC50 is < 100 nM.
